Laboratory results: PMC6628648, “Enabling microbial syringol conversion through structure-guided protein engineering” (Proceedings of the National Academy of Sciences of the …, 2019)

Legend:
Format in all cases: biochemical, Amycolatopsis sp. ATCC 39116
GcoA variant F169L = target: T1, GcoA variant F169L (Amycolatopsis sp., UniProt P0DPQ7, F169L); assay: NADH consumption assay (specific activity) with GcoB; conditions: saturating (200 µM) substrate, pH 7.5, 25°C
T1 construct: GST (N, cleaved yes); made in house; host or cells: E. coli Rosetta 2 (DE3)
T1 sequence (P0DPQ7 whole entry F169L): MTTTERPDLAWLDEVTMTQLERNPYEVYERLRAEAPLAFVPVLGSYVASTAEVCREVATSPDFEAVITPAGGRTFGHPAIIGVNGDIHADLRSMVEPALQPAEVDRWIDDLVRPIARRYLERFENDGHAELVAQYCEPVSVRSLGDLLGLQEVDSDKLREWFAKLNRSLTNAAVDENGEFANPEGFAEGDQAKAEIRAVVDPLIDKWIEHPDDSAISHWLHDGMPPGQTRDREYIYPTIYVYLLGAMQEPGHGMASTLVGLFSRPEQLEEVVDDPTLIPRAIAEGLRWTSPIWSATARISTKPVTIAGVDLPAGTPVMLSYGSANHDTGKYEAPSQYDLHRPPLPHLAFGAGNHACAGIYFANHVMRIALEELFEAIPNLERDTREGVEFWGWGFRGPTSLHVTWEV

GcoA-F169A = GcoA-F169A (Amycolatopsis sp., UniProt P0DPQ7, F169A); assay: End-point stoichiometry and coupling assay (formaldehyde by tryptophan assay, aromatics by HPLC, NADH by UV/vis); set-up: GST (N, cleaved yes); made in house; host or cells: E. coli Rosetta 2 (DE3); conditions: for Coupling efficiency: F169A, molar ratio formaldehyde produced per NADH consumed, 200 µM NADH, 200 µM aromatic substrate; for % Formaldehyde produced: referenced to NADH consumed; for formaldehyde produced at reaction completion: 100 μM substrate
Sequence of GcoA-F169A (P0DPQ7 whole entry F169A): as the sequence (P0DPQ7 whole entry F169L) above, with L169A counted along it
Text: Fig. 1. Quantitative analyses of substrate consumption and product generation indicate nearly complete coupling of NADH/O2 consumption to substrate O-demethylation for guaiacol and progressively more uncoupling for syringol and 3MC. […] Reactants and products were quantified when the UV/vis spectrum ceased changing and the reaction was deemed complete. The total NADH consumed is compared with the amounts of formaldehyde and demethylated aromatic compound produced. Pyrogallol, the O-demethylated product of 3MC, is unstable in air under the conditions used in the assay and was not detected. Error bars represent ±1 SD from three or more independent measurements. P values comparing NADH consumption and formaldehyde production were 0.035 for guaiacol, 0.20 for 100 µM syringol, 0.41 for 200 µM syringol, and 0.0035 for 3MC. For NADH consumption and aromatic product production, these P values were 0.011 for guaiacol, 0.00031 for 100 µM syringol, and 0.0084 for 200 µM syringol.
The [formaldehyde] produced on reaction with GcoA-F169A and substrates was determined using a colorimetric assay with tryptophan ([28], [42]); details are provided in SI Appendix.
HPLC was used to verify the O-demethylated product of GcoA-F169A GcoA/GcoB with guaiacol, syringol, or 3MC. In addition, discontinuous HPLC was used to determine the specific activity of aromatic product disappearance. Details are provided in SI Appendix. […]
vi = Vmax[S]/(KM + [S]) (4) […]
Formaldehyde determination. A colorimetric assay using tryptophan can be used to quantify the amount of formaldehyde produced in F169 GcoA/B reactions with guaiacol, syringol, or 3MC. 0.2 µM each of F169 GcoA mutants and GcoB were dissolved in air-saturated buffer (25 mM HEPES, 50 mM NaCl) in a cuvette at pH 7.5, 25 °C. 100 µg/mL catalase was added to each reaction to capture any H2O2 formed during the uncoupled reaction. 200 μM NADH was added and the background rate recorded. 100 (guaiacol, syringol, or 3MC) or 200 (syringol) μM of substrate was then added and the reaction monitored until there was no more change, due to either substrate, NADH or O2 depletion, whichever occurred first. 200 µL of the reaction was then quenched by adding 200 µL of a 0.1% tryptophan solution in 50% ethanol and 200 µL of 90% sulfuric acid. Upon thorough mixing, 40 µL of 1% FeCl3 was added. The solution was then incubated in a heating block for 90 min at 70 °C. After cooling, the absorbance was read at 575 nm and the [formaldehyde] calculated by using ε575 nm = 4.2 mM-1 cm-1, obtained with formaldehyde as a standard (1). A negative control included everything but the substrate and was used as a baseline.
HPLC for product identification and specific activity measurement. Analyte analysis of the above end-point reactions (100 μM guaiacol, syringol, or 3MC, or 200 μM syringol) was performed on an Agilent 1100 LC system (Agilent Technologies) equipped with a G1315B diode array detector (DAD). Each sample and standard was injected at a volume of 10 μL onto a Symmetry C18 column 5 μm, 4.6 x 150 mm column (Waters). The column temperature was maintained at 30 °C and the buffers used to separate the analytes of interest was 0.01% TFA in water (A)/ acetonitrile (B). The separation was carried out using a gradient program of: (A) = 99% and (B) = 1% at time t = 0 min; (A) = 99% and (B) = 1% at time t = 2 min, (A) = 50% and (B) = 50% at t = 8 min; (A) = 1% and (B) = 99% at t = 8.01 min; (A) = 99% and (B) = 1% at t = 10.01 min; (A) = 99% and (B) = 1% at t = 11 min. The flow rate was held constant at 1.5 mL min-1, resulting in a run time of 11 minutes. DAD wavelengths of 210 and 325 nm were used for analysis of the analytes of interest. Standard curves were generated using 0-500 μM of guaiacol, syringol, 3MC, catechol, and pyrogallol. Integrated intensities vs [standards] were plotted and the resulting standard curves used to quantify the reactants and products. […]

WT GcoA = target: T2, WT GcoA (Amycolatopsis sp., UniProt P0DPQ7); assay: NADH consumption assay (steady-state kinetics, specific activity) with GcoB; conditions: for Specific activity: WT, NADH consumption, saturating (200 µM) substrate, pH 7.5, 25°C
T2 construct: GST (N, cleaved yes); made in house; host or cells: E. coli Rosetta 2 (DE3)
T2 sequence (P0DPQ7 1-407): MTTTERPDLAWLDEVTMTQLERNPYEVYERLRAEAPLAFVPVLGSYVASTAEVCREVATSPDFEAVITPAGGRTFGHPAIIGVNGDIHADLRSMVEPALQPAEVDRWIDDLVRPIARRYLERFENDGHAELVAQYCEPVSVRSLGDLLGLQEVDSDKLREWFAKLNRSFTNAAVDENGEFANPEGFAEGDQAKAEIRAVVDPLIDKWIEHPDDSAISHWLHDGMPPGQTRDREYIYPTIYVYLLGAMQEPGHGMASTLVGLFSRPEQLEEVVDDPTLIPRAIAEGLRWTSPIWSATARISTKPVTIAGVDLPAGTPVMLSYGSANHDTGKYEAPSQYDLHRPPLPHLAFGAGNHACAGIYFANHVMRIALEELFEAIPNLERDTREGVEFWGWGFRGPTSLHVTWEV

GcoA variant F169S = target: T3, GcoA variant F169S (Amycolatopsis sp., UniProt P0DPQ7, F169S); assay: NADH consumption assay (specific activity) with GcoB; conditions: saturating (200 µM) substrate, pH 7.5, 25°C
T3 construct: GST (N, cleaved yes); made in house; host or cells: E. coli Rosetta 2 (DE3)
T3 sequence (P0DPQ7 whole entry F169S): as the sequence (P0DPQ7 whole entry F169L) above, with L169S counted along it

[1] = GcoA-F169A, 100 µM substrate + 100 µM NADH
[2] = GcoA-F169A, 200 μM NADH, 210 μM O2
[3] = WT GcoA, apparent, 0.2 µM GcoAB, 300 µM NADH, 210 µM O2, 0–300 µM substrate, pH 7.5, 25 °C
[4] = GcoA-F169A, NADH and syringol ∼200 μM each, 210 μM O2

Row | SMILES | Specific activity (GcoA variant F169L) | Coupling efficiency (GcoA-F169A) | % Formaldehyde produced (GcoA-F169A; [1]) | formaldehyde produced at reaction completion (GcoA-F169A; [2]) | Specific activity (WT GcoA) | Specific activity (GcoA variant F169S) | Km (WT GcoA; [3]) | kcat (WT GcoA; [3]) | % Formaldehyde produced (GcoA-F169A; GcoA-F169A, 100 µM substrate + 200 µM NADH) | singly demethylated intermediate 3MC observed at the end of the reaction (GcoA-F169A; GcoA-F169A, 100 μM syringol, 200 μM NADH, 210 μM O2) | 3MC generated (GcoA-F169A; [4]) | formaldehyde generated (GcoA-F169A; [4]) | syringol consumed (GcoA-F169A; [4]) | demethylation by WT GcoA (WT GcoA; WT GcoA 0.2 μM, 300 μM NADH, 210 μM O2, pH 7.5, 25 °C)
1 | COc1cccc(O)c1O [3MC, 3-methoxycatechol] | 0.57 ± 0.2 μmol sec-1 μmol-1 GcoA | 64 ± 10% | 52 ± 7% | ~100 µM | 3.2 ± 0.2 μmol sec-1 μmol-1 GcoA | 6.0 ± 0.8 μmol sec-1 μmol-1 GcoA |  |  |  |  |  |  |  | 
2 | COc1ccccc1O [guaiacol, 2-methoxyphenol] | 4.5 ± 0.3 μmol sec-1 μmol-1 GcoA | 103 ± 7% | 100 ± 10% |  | 5.0 ± 0.1 μmol sec-1 μmol-1 GcoA | 5.7 ± 0.8 μmol sec-1 μmol-1 GcoA | 60 ± 10 µM | 6.8 ± 0.02 s⁻¹ |  |  |  |  |  | 
3 | COc1cccc(OC)c1O [syringol, 2,6-dimethoxyphenol] | 0.54 ± 0.1 μmol sec-1 μmol-1 GcoA | 104 ± 6% | 125 ± 6% | 170 ± 10 µM |  | 5.1 ± 0.9 μmol sec-1 μmol-1 GcoA |  |  | 91 ± 8% | 50 ± 4 µM | 120 ± 2 µM | 200 ± 3 µM | 150 ± 6 µM | unable to demethylate syringol
